Data published in patent publication US20080146987A1, “TREATMENT OF A SKIN CONDITION USING A PIPERINE-BASED COMPOSITION IN CONJUNCTION WITH IRRADIATION” (OREGON HEALTH & SCIENCE UNIVERSITY, priority 2006, published 2008).

System: HRA.HRII-c/+/Skh hairless pigmented mice
Assay: visual pigmentation score after topical compounds with or without UVB, 13-week protocols
Type: in vivo
Conditions: HRA/Skh-II mice, four or more weeks
Protocol: Male and female inbred HRA.HRII-c/+/Skh hairless pigmented mice, age-matched (8-16 weeks old), were used in the following in vivo experiments for evaluation of pigmentation induced by piperine and/or UVR.
In one experiment, the compounds used included piperine, THP, CHP, and RCHP, each prepared in DMSO at a 50 mg/ml concentration, and applied to the backs of mice (n=4) twice daily on weekdays for 13 weeks, as shown in FIG. 3. As shown, Group A received treatment with compounds only from week 1-13. Group B was treated with compound from week 1-13, with additional UVB irradiation from weeks 5-13. Group F received UVB alone (no topical treatment) for 9 weeks, corresponding to weeks 5-13. Groups C, D and E were treated as Group B from weeks 1-7. All treatments was suspended for 3 weeks (8-10) and re-started as topical treatment with compounds only (Group C), UVB only (Group D), or topical treatment with UVB (Group E) from weeks 11-13.
Pigmentation was assessed visually by an investigator blinded to the treatment that the animals had received using the following scoring system: 0—no pigmentation; 1—first signs of pigmentation (spots); 2—light brown; 3—medium brown; 4—dark brown; 5—black. Scores obtained at the end of each week (Friday) are shown in FIG. 4 (piperine noted as PIP). […]

O=C(CCCCc1ccc2c(c1)OCO2)NC1CCCCC1 [RCHP, 5-(3,4-methylenedioxyphenyl)-2,4-pentanoylcyclohexylamine]
skin pigmentation in vivo after continuous topical application: stimulate the development of even skin pigmentation
